Data taken from patent US12281149B2, “Modulators of G-protein coupled receptors” (priority 2021, dated 2025).
*1 amine or outer side, *2 acyl side, *3 side chain or, on linkers, in order; H or OH if unused. Where a SMILES comes first, the peptide text is derived from it. Side-chain parts run from the residue outwards. [ ]: non-standard residue; d: D form. The star is where a group is joined. C20 diacid = O=C(O)CCCCCCCCCCCCCCCCCCC(=O)*; γGlu = O=C(O)[C@H](CCC(=O)[*:2])N[*:1]; X4 = O=C(C(F)(F)c1ccc(F)cc1)*; AEEA = NCCOCCOCC(=O)O; Aib = CC(C)(N)C(=O)O; βAla = NCCC(=O)O

Tests used:
Assay type in all cases: cell-based
GIP receptor [1] = target: T1, GIP receptor (Homo sapiens, UniProt P48546); experiment: PathHunter β-arrestin assay, GIP receptor; design: host or cells: PathHunter CHO-K1 GIPR β-Arrestin Cell Line; details: β-arrestin-2 recruitment, PathHunter CHO-K1 GIPR β-Arrestin Cell Line, 90 min at 37° C.; normalized to GIP; read-out: GIPR β Arrestin EC50
T1 sequence (P48546 22-466): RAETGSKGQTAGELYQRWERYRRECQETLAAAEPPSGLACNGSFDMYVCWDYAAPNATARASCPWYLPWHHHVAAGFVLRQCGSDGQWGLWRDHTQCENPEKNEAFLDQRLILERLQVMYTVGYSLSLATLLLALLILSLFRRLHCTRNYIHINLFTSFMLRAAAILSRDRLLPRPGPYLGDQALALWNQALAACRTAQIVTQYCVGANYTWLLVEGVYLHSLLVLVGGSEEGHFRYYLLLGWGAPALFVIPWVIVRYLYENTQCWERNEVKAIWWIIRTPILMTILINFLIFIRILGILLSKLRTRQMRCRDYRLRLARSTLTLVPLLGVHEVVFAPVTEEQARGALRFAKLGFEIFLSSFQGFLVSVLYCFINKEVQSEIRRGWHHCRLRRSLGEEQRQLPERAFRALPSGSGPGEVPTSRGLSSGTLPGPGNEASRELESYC

GIP receptor [2] = target: T1, GIP receptor; experiment: HitHunter cAMP assay, GIP receptor; details: for EC50: CHO cells stably expressing GIP receptor, cAMP accumulation, 30 min, read-out: EC50 GIP-1R; for Emax: CHO cells, cAMP, normalized to maximum signal from GIP (high) and DMSO (low), read-out: Emax GIP-1R
GLP-1 receptor [3] = target: T2, GLP-1 receptor (Homo sapiens, UniProt P43220); experiment: PathHunter β-arrestin assay, GLP-1 receptor; design: host or cells: PathHunter CHO-K1 GLP1R β-Arrestin Cell Line; details: β-arrestin-2 recruitment, PathHunter CHO-K1 GLP1R β-Arrestin Cell Line, 90 min at 37° C.; normalized to GLP-1; read-out: GLP-1R β Arrestin EC50
T2 sequence (P43220 24-463): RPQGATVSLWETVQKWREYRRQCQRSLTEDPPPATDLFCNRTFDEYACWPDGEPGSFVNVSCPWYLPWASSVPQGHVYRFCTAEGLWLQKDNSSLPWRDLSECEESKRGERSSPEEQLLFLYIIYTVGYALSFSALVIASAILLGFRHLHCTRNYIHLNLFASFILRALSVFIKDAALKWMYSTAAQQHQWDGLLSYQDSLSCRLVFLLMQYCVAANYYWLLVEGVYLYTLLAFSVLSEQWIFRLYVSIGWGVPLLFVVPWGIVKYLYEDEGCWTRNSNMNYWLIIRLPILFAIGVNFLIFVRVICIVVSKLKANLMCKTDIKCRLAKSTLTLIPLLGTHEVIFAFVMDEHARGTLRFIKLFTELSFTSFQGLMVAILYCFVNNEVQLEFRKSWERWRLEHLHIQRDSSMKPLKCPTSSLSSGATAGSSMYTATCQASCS
Description: β-arrestin-2 recruitment for GLP-1 receptor or GIP receptor was measured using the DiscoverX PathHunter Detection Kit and PathHunter® CHO-K1 GLPIR β-Arrestin Cell Line or PathHunter® CHO-K1 GIPR β-Arrestin Cell Line, respectively). Briefly, cells were grown in Ham's F12 Nutrient Mix with 10% FBS and lifted with Cell dissociation buffer, Enzyme free, PBS based (ThermoFisher). Harvested cells were pelleted and resuspended in Assay Complete Cell Plating Reagent 2 and 5000 cells per well were plated in tissue culture treated 384-well small volume white assay plates. Plates were then incubated at 37° C. and 5% CO2 overnight. The media was then replaced with fresh Assay Complete Cell Plating Reagent 2. Cells were then treated with 10 nl compound in DMSO using an ECHO 550 acoustic dispenser (Labcyte) in a 20-point dose response format in duplicate for 90 min at 37° C. The assay was then completed according to the manufacturer's instructions. Luminescence was measured using a Perkin Elmer Envision plate reader. Raw data was normalized to the maximum signal from GLP-1 or GIP (high) and DMSO (low). Dose response curves were analyzed using GraphPad Prism 9.0.

GLP-1 receptor [4] = target: T2, GLP-1 receptor; experiment: HitHunter cAMP assay, GLP-1 receptor; details: for EC50: CHO cells stably expressing human GLP-1 receptor, cAMP accumulation, 30 min, read-out: EC50 GLP-1R; for Emax: CHO cells, cAMP, normalized to maximum signal from GLP-1 (high) and DMSO (low), read-out: Emax GLP-1R

SMILES | EC50 (GIP receptor [1]) [nM] | EC50 (GIP receptor [2]) [nM] | Emax (GIP receptor [2]) [%] | EC50 (GLP-1 receptor [3]) [nM] | EC50 (GLP-1 receptor [4]) [nM] | Emax (GLP-1 receptor [4]) [%]
CC[C@H](C)[C@H](NC(=O)[C@H](CO)NC(=O)[C@H](Cc1ccc(O)cc1)NC(=O)[C@H](CC(=O)O)NC(=O)[C@H](CO)NC(=O)[C@@H](NC(=O)[C@H](Cc1ccccc1)NC(=O)[C@@H](NC(=O)CNC(=O)[C@H](CCC(=O)O)NC(=O)CCNC(=O)C(C)(C)c1cc(F)cc(C#N)c1)[C@@H](C)O)[C@@H](C)O)C(=O)N[C@@H](Cc1ccc(O)cc1)C(=O)N[C@@H](CC(C)C)C(=O)N[C@@H](CC(=O)O)C(=O)N[C@@H](CCCCN)C(=O)N[C@@H](CCC(N)=O)C(=O)N[C@@H](C)C(=O)N[C@@H](C)C(=O)NC(C)(C)C(=O)N[C@@H](CCC(=O)O)C(=O)N[C@@H](Cc1ccccc1)C(=O)N[C@H](C(=O)N[C@@H](CC(N)=O)C(=O)N[C@@H](Cc1c[nH]c2ccccc12)C(=O)N[C@@H](CC(C)C)C(=O)N[C@@H](CC(C)C)C(=O)N[C@@H](C)C(=O)NCC(=O)NCC(=O)N1CCC[C@H]1C(=O)N[C@@H](CO)C(=O)N[C@@H](CO)C(=O)NCC(=O)N[C@@H](C)C(=O)N1CCC[C@H]1C(=O)N1CCC[C@H]1C(=O)N1CCC[C@H]1C(=O)N[C@@H](CO)C(=O)N[C@@H](CCCCNC(=O)COCCOCCNC(=O)COCCOCCNC(=O)CC[C@H](NC(=O)CCCCCCCCCCCCCCCCCCC(=O)O)C(=O)O)C(N)=O)C(C)C [Compound 187] | > 1000 | 10 to 100 | 95 | > 1000 | 1 to 10 | 95
CC[C@H](C)[C@H](NC(=O)[C@H](CC(C)C)NC(=O)[C@H](Cc1c[nH]c2ccccc12)NC(=O)[C@H](CCC(N)=O)NC(=O)[C@@H](NC(=O)[C@H](Cc1ccccc1)NC(=O)[C@H](C)NC(=O)[C@H](CCCCNC(=O)COCCOCCNC(=O)COCCOCCNC(=O)CC[C@H](NC(=O)CCCCCCCCCCCCCCCCCCC(=O)O)C(=O)O)NC(=O)[C@H](CCC(N)=O)NC(=O)[C@H](C)NC(=O)[C@@H](NC(=O)[C@H](CCCCN)NC(=O)[C@H](CC(=O)O)NC(=O)[C@H](CC(C)C)NC(=O)C(C)(C)NC(=O)[C@@H](NC(=O)[C@H](CO)NC(=O)[C@H](Cc1ccc(O)cc1)NC(=O)[C@H](CC(=O)O)NC(=O)[C@H](CO)NC(=O)[C@@H](NC(=O)[C@H](Cc1ccccc1)NC(=O)[C@@H](NC(=O)CNC(=O)[C@H](CCC(=O)O)NC(=O)CCNC(=O)C(F)(F)c1ccc(F)cc1)[C@@H](C)O)[C@@H](C)O)[C@@H](C)CC)[C@@H](C)CC)C(C)C)C(=O)N[C@@H](C)C(=O)NCC(=O)NCC(=O)N1CCC[C@H]1C(=O)N[C@@H](CO)C(=O)N[C@@H](CO)C(=O)NCC(=O)N[C@@H](C)C(=O)N1CCC[C@H]1C(=O)N1CCC[C@H]1C(=O)N1CCC[C@H]1C(=O)N[C@@H](CO)C(N)=O [Compound 188] ({X4-βAla}-EGTFTSDYSI[Aib]LDKIAQK([AEEA-AEEA-γGlu-C20 diacid])AFVQWLIAGGPSSGAPPPS-NH2) | > 1000 | 10 to 100 | 79 | > 1000 | 0.1 to 1 | 91
